# Measurements published in US20230113037A1 (Bayer Aktiengesellschaft, priority 2019, published 2023).
# Where two headings read alike, the source gives them in different places.
# Experiments:
# AHR [1] = target: T1, AHR (Mus musculus, UniProt P30561); test: In vitro assay 3: antagonism in mouse cell line (AHR transactivation, firefly luciferase reporter, kynurenic acid prestimulated); assay type: cell-based
# T1 sequence (P30561 1-848 P471L/N533S/M589L): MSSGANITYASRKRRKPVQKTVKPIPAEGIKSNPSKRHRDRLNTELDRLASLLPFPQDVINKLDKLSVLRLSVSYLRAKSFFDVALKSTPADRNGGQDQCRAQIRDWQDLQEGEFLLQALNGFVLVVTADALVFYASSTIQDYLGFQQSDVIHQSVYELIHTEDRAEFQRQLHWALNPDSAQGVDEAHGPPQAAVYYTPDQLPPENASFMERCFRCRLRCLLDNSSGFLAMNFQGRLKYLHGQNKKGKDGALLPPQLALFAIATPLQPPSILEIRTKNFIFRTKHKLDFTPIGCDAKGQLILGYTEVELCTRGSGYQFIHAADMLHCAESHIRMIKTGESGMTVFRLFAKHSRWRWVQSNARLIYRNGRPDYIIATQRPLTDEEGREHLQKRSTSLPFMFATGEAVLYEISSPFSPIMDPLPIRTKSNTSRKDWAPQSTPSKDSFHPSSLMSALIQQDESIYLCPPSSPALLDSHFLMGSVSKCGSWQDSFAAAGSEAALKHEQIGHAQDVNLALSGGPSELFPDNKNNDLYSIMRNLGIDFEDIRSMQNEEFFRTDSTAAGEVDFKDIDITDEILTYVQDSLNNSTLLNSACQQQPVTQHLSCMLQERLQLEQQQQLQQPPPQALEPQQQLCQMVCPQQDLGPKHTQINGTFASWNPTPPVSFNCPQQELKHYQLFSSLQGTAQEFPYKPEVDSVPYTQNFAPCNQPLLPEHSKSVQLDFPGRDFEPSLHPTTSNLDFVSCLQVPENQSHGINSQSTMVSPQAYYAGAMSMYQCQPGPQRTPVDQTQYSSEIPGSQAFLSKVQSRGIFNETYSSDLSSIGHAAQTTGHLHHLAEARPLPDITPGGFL
# Procedure, shortened: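 Mouse cells stably carrying a DRE-driven, AHR-inducible firefly luciferase reporter were prestimulated with the endogenous agonist kynurenic acid before compound addition. Luciferase activity was measured by luminescence and normalized to positive and negative controls, with cells lacking kynurenic acid serving as full-inhibition control. Repeat tests are reported as mean or median.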
# AHR [2] = target: T2, AHR (Homo sapiens, UniProt P35869); test: In vitro assay 1: antagonism in human cell line (AHR transactivation, firefly luciferase reporter, kynurenic acid prestimulated); assay type: cell-based; details: AHR Antagonism Human IC50 [M]
# T2 construct: U87 MG glioblastoma cells (ATCC #HTB-14) endogenously expressing AHR; endogenous in cells; host or cells: U87 MG glioblastoma cells (ATCC #HTB-14)
# T2 sequence (P35869 11-848): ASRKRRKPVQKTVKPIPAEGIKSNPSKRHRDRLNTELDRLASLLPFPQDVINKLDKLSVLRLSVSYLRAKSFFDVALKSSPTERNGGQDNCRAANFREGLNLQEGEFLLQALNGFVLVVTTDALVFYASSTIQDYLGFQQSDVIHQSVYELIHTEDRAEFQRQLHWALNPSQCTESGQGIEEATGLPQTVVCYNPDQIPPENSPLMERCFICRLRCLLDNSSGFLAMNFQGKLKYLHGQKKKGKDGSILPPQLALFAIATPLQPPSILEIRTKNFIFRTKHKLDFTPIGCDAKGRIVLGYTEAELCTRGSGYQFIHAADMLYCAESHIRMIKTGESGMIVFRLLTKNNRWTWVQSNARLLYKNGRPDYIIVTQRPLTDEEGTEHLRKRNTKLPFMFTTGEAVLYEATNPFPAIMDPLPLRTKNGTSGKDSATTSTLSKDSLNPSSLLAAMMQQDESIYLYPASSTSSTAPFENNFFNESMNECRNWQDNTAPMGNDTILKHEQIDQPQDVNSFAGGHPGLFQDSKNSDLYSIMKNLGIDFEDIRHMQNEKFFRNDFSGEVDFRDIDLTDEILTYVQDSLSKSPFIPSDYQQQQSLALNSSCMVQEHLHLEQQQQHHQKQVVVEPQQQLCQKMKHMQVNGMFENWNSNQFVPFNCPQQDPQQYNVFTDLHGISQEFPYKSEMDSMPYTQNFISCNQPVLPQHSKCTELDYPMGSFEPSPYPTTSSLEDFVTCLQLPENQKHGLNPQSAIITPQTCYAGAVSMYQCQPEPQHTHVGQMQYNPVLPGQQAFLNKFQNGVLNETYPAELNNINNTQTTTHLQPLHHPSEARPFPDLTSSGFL
# Procedure, shortened: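 U87 MG + DRE-firefly/constitutive-Renilla stable reporters; kynurenic acid prestim; dual-luc read; Renilla = tox; normalized vs pos/neg controls (pos: 150 μM KYNA + 5 μM staurosporine).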
# [3] = mouse Hepa 1c1c7 cells, 200 μM kynurenic acid, 20 hours, read-out: AHR Antagonism Mouse IC50
IC50 (AHR [1]; [3]),IC50 (AHR [2]),SMILES,"IC50 (AHR [1]; read-out: AHR Antagonism Mouse IC50, mouse Hepa 1c1c7 cells, 200 μM kynurenic acid, 20 hours)"
1.51 nM,1.02e-08 M,"N#Cc1cccc(-c2nc3c4ccccc4nc(N[C@@H]4CCCCNC4=O)n3n2)c1 [Example 381, 3-(5-{[(3R)-2-oxoazepan-3-yl]amino}[1,2,4]triazolo[1,5-c]quinazolin-2-yl)benzonitrile]",–
1.25 nM,7.64e-09 M,"CC[C@@H](Nc1nc2ccccc2c2nc(-c3cccc(C#N)c3)nn12)C(N)=O [Example 382, (2R)-2-{[2-(3-cyanophenyl)[1,2,4]triazolo[1,5-c]quinazolin-5-yl]amino}butanamide]",–
388 nM,1.39e-07 M,"N#Cc1cccc(-c2nc3c4ccccc4nc(N[C@@H]4CCNC4=O)n3n2)c1 [Example 383, 3-(5-{[(3R)-2-oxopyrrolidin-3-yl]amino}[1,2,4]triazolo[1,5-c]quinazolin-2-yl)benzonitrile]",–
72.2 nM,2.73e-07 M,"N#Cc1cccc(-c2nc3c4ccccc4nc(N[C@@H]4CCCNC4=O)n3n2)c1 [Example 384, 3-(5-{[(3R)-2-oxopiperidin-3-yl]amino}[1,2,4]triazolo[1,5-c]quinazolin-2-yl)benzonitrile]",–
146 nM,1.97e-06 M,"N#Cc1cccc(-c2nc3c4ccccc4nc(N[C@H]4CCCCNC4=O)n3n2)c1 [Example 385, 3-(5-{[(3S)-2-oxoazepan-3-yl]amino}[1,2,4]triazolo[1,5-c]quinazolin-2-yl)benzonitrile]",–
0.346 nM,6.02e-10 M,"CC[C@@H](Nc1nc2ccccc2c2nc(-c3ccc(C#N)cc3)nn12)C(N)=O [Example 386, (2R)-2-{[2-(4-cyanophenyl)[1,2,4]triazolo[1,5-c]quinazolin-5-yl]amino}butanamide]",–
0.398 nM,7.93e-10 M,"N#Cc1ccc(-c2nc3c4ccccc4nc(N[C@@H]4CCCCNC4=O)n3n2)cc1 [Example 387, 4-(5-{[(3R)-2-oxoazepan-3-yl]amino}[1,2,4]triazolo[1,5-c]quinazolin-2-yl)benzonitrile]",–
26.7 nM,1.76e-08 M,"N#Cc1ccc(-c2nc3c4ccccc4nc(N[C@@H]4CCCNC4=O)n3n2)cc1 [Example 389, 4-(5-{[(3R)-2-oxopiperidin-3-yl]amino}[1,2,4]triazolo[1,5-c]quinazolin-2-yl)benzonitrile]",–
1.02 nM,1.38e-09 M,"O=C1NCCCC[C@H]1Nc1nc2ccccc2c2nc(-c3ccn4ccnc4c3)nn12 [Example 390, (3R)-3-{[2-(Imidazo[1,2-a]pyridin-7-yl)[1,2,4]triazolo[1,5-c]quinazolin-5-yl]amino}azepan-2-one]",–
46.1 nM,3.31e-08 M,"COc1ccc(-c2nc3c4ccccc4nc(N[C@H](C)C(=O)NC(C)C)n3n2)cc1 [Example 391, N^2-[2-(4-Methoxyphenyl)[1,2,4]triazolo[1,5-c]quinazolin-5-yl]-N-propan-2-yl-D-alaninamide]",–
31.5 nM,2.38e-07 M,"COc1ccc(-c2nc3c4cc(C(C)C)ccc4nc(N[C@@H]4CCCCNC4=O)n3n2)cc1 [Example 392, (3R)-3-{[2-(4-Methoxyphenyl)-9-(propan-2-yl)[1,2,4]triazolo[1,5-c]quinazolin-5-yl]amino}azepan-2-one]",–
30.9 nM,1.16e-08 M,"CC(C)c1cccc2c1nc(N[C@@H]1CCCCNC1=O)n1nc(-c3cccc(F)c3)nc21 [Example 394, (3R)-3-{[2-(3-Fluorophenyl)-7-(propan-2-yl)[1,2,4]triazolo[1,5-c]quinazolin-5-yl]amino}azepan-2-one]",–
2410 nM,3e-07 M,"COc1ccc(-c2nc3c4ccc(C(C)C)cc4nc(N[C@@H]4CCCCNC4=O)n3n2)cc1 [Example 395, (3R)-3-{[2-(4-Methoxyphenyl)-8-(propan-2-yl)[1,2,4]triazolo[1,5-c]quinazolin-5-yl]amino}azepan-2-one]",–
21.6 nM,1.12e-08 M,"COc1ccc(-c2nc3c4c(C5COC5)cccc4nc(N[C@@H]4CCCCNC4=O)n3n2)cc1 [Example 396, (3R)-3-{[2-(4-methoxyphenyl)-10-(oxetan-3-yl)[1,2,4]triazolo[1,5-c]quinazolin-5-yl]amino}azepan-2-one]",–
37.6 nM,1.83e-08 M,"COc1ccc(-c2nc3c4c(C5CCOCC5)cccc4nc(N[C@@H]4CCCCNC4=O)n3n2)cc1 [Example 397, (3R)-3-{[2-(4-methoxyphenyl)-10-(oxan-4-yl)[1,2,4]triazolo[1,5-c]quinazolin-5-yl]amino}azepan-2-one]",–
135 nM,2.24e-08 M,"COc1ccc(-c2nc3c4cccc(C5(C(F)(F)F)CC5)c4nc(N[C@@H]4CCCCNC4=O)n3n2)cc1 [Example 398, (3R)-3-({2-(4-methoxyphenyl)-7-[1-(trifluoromethyl)cyclopropyl][1,2,4]triazolo[1,5-c]quinazolin-5-yl}amino)azepan-2-one]",–
55.7 nM,1.85e-08 M,"COc1ccc(-c2nc3c4cccc(C5(C)CC5)c4nc(N[C@@H]4CCCCNC4=O)n3n2)cc1 [Example 399, (3R)-3-{[2-(4-methoxyphenyl)-7-(1-methylcyclopropyl)[1,2,4]triazolo[1,5-c]quinazolin-5-yl]amino}azepan-2-one]",–
119 nM,4.16e-08 M,"COc1ccc(-c2nc3c4ccc(C#N)cc4nc(N[C@@H]4CCCCNC4=O)n3n2)cc1 [Example 400, 2-(4-Methoxyphenyl)-5-{[(3R)-2-oxoazepan-3-yl]amino}[1,2,4]triazolo[1,5-c]quinazoline-8-carbonitrile]",–
8.7 nM,4.44e-09 M,"COc1ccc(-c2nc3c4cc(C#N)ccc4nc(N[C@@H]4CCCCNC4=O)n3n2)cc1 [Example 401, 2-(4-Methoxyphenyl)-5-{[(3R)-2-oxoazepan-3-yl]amino}[1,2,4]triazolo[1,5-c]quinazoline-9-carbonitrile]",–
26.1 nM,8.32e-09 M,"N#Cc1cccc2c1nc(N[C@@H]1CCCCNC1=O)n1nc(-c3ccc(F)cc3)nc21 [Example 402, 2-(4-Fluorophenyl)-5-{[(3R)-2-oxoazepan-3-yl]amino}[1,2,4]triazolo[1,5-c]quinazoline-7-carbonitrile]",–
95.1 nM,3.03e-08 M,"Cn1cc(-c2nc3c4cccc(C#N)c4nc(N[C@@H]4CCCCNC4=O)n3n2)cn1 [Example 403, 2-(1-Methyl-1H-pyrazol-4-yl)-5-{[(3R)-2-oxoazepan-3-yl]amino}[1,2,4]triazolo[1,5-c]quinazoline-7-carbonitrile]",–
2760 nM,3.39e-06 M,"Cc1ccc2nc(N[C@@H]3CCCCNC3=O)n3nc(-c4cnn(C)c4)nc3c2c1C(F)F [Example 404, (3R)-3-{[10-(difluoromethyl)-9-methyl-2-(1-methyl-1H-pyrazol-4-yl)[1,2,4]triazolo[1,5-c]quinazolin-5-yl]amino}azepan-2-one]",–

SMILES,IC50 (AHR [1]; [3]),IC50 (AHR [2]),"IC50 (AHR [1]; read-out: AHR Antagonism Mouse IC50, mouse Hepa 1c1c7 cells, 200 μM kynurenic acid, 20 hours)"
"CC(C)c1cccc2c1nc(N[C@@H]1CCCCNC1=O)n1nc(-c3ccc(F)cc3)nc21 [Example 393, (3R)-3-{[2-(4-Fluorophenyl)-7-(propan-2-yl)[1,2,4]triazolo[1,5-c]quinazolin-5-yl]amino}azepan-2-one]",–,4.34e-08 M,34.2 nM
